Values of other authors in US20050009782A1, “Antiviral charged polymers that exhibit resistance to lysosomal degradation during kidney filtration and renal passage, compositions and methods of use thereof” (priority 2003, published 2005).

How the values were obtained:
HIV [1] = conditions: for In vitro activity: listed virus = activity demonstrated; for inhibition of HIV replication: in vitro; for inhibition of HIV replication / inhibition of HIV in vitro: reported in literature
semlikiviruses = conditions: reported in literature
CMV = conditions: for inhibition of cytomegaloviruses in vitro: reported in literature; for In vitro activity: listed virus = activity demonstrated
Chlamydia = conditions: listed organism = activity demonstrated
HSV = conditions: for inhibition of herpes simplex viruses in vitro: reported in literature; for In vitro activity: listed virus = activity demonstrated
paramyxoviruses = conditions: reported in literature
HIV [2] = tested on: HIV
HHV-7 = conditions: listed virus = activity demonstrated
MLV = conditions: listed virus = activity demonstrated
Denge virus = conditions: listed virus = activity demonstrated
HSV-1 = conditions: listed virus = activity demonstrated
HSV-2 = conditions: listed virus = activity demonstrated
HIV-1 = conditions: listed virus = activity demonstrated
mumps = conditions: listed virus = activity demonstrated
measles = conditions: listed virus = activity demonstrated
RLV = conditions: listed virus = activity demonstrated

Molecule: N[C@H]1C(O)O[C@H](COS(=O)(=O)O)[C@@H](O)[C@@H]1O (stereo partly drawn) [Glucosamine-6-sulfate (monosaccharide), Glucosamine-6-sulfate]
- In vitro activity (HIV [1]): HIV

Molecule: Sulfated octadecyl ribofurnans
- In vitro activity (HIV [1]): HIV

Molecule: Sulfated octadecyl maltohexaoside
- In vitro activity (HIV [1]): HIV

Molecule: O=S(=O)(O)OC1C(OS(=O)(=O)O)C(OS(=O)(=O)O)C(OS(=O)(=O)O)C(OS(=O)(=O)O)C1OS(=O)(=O)O (stereo not drawn) [Inositol hexasulfate]
- In vitro activity (HIV [1]): HIV

Molecule: iota-carrageenan
- inhibition of HIV replication (HIV [1]): inhibit HIV replication

Molecule: Pentosan polysulfate
- inhibition of semlikiviruses in vitro (semlikiviruses): potent inhibitors
- inhibition of cytomegaloviruses in vitro (CMV): potent inhibitors
- inhibition of HIV replication (HIV [1]): inhibit HIV replication
- In vitro activity (HIV [1]): HIV
- inhibition of HIV in vitro (HIV [1]): potent inhibitors
- inhibition of influenza viruses in vitro (influenza viruses): potent inhibitors
- In vitro activity (Chlamydia): Chlamydia
- inhibition of herpes simplex viruses in vitro (HSV): potent inhibitors
- inhibition of paramyxoviruses in vitro (paramyxoviruses): potent inhibitors

Molecule: dextran sulfate
- toxicity of continuous intravenous infusion (continuous infusion to maximally tolerated dose, subjects with symptomatic HIV infection, up to 14 days): toxic
- toxicity in mammals and HIV patients (mammals and HIV patients): significant toxicity
- inhibition of semlikiviruses in vitro (semlikiviruses): potent inhibitors
- inhibition of cytomegaloviruses in vitro (CMV): potent inhibitors
- activity against HIV in vivo (HIV [2]; commercial dextran sulfate): poor activity
- beneficial effect in vivo (HIV [2]; continuous infusion, subjects with symptomatic HIV infection, up to 14 days): lack of any demonstration of beneficial effect in vivo
- inhibition of HIV replication (HIV [1]): inhibit HIV replication
- inhibition of HIV in vitro (HIV [1]): potent inhibitors
- inhibition of influenza viruses in vitro (influenza viruses): potent inhibitors
- inhibition of herpes simplex viruses in vitro (HSV): potent inhibitors
- inhibition of paramyxoviruses in vitro (paramyxoviruses): potent inhibitors

Molecule: Ribofuranan sulfate
- In vitro activity (HIV [1]): HIV

Molecule: Heparin
- inhibition of semlikiviruses in vitro (semlikiviruses): potent inhibitors
- inhibition of cytomegaloviruses in vitro (CMV): potent inhibitors
- In vitro activity (HHV-7): HHV-7
- In vitro activity (MLV): virus, MLV
- inhibition of HIV replication (HIV [1]): inhibit HIV replication
- In vitro activity (HIV [1]): HIV
- inhibition of HIV in vitro (HIV [1]): potent inhibitors
- In vitro activity (ASFV): ASFV, Denge
- inhibition of influenza viruses in vitro (influenza viruses): potent inhibitors
- inhibition of herpes simplex viruses in vitro (HSV): potent inhibitors
- In vitro activity (Denge virus): ASFV, Denge
- inhibition of paramyxoviruses in vitro (paramyxoviruses): potent inhibitors

Molecule: Sulfate dodecyl laminarapentaoside
- In vitro activity (HIV [1]): HIV

Molecule: Rhamnan sulfate
- In vitro activity (CMV): CMV
- In vitro activity (HIV [1]): HIV
- In vitro activity (HSV-1): HSV-1

Molecule: Xylomannan sulfate
- In vitro activity (HIV [1]): HIV
- In vitro activity (HSV-1): HSV-1
- In vitro activity (HSV-2): HSV-2

Molecule: Sulfated N-deacetylatedchitin
- In vitro activity (HSV): HSV

Molecule: Polyacetal polysulfate
- In vitro activity (HIV [1]): HIV

Molecule: Sulfated xylogalactans
- In vitro activity (HIV-1): HIV-1

Molecule: 3′ sulfogalactosylceramide [Sulfatide (3′ sulfogalactosylceramide)]
- In vitro activity (HIV [1]): HIV

Molecule: Chondroitin polysulfate
- In vitro activity (HIV [1]): HIV

Molecule: Carboxymethylchitin
- In vitro activity (HSV): HSV

Molecule: Mannan sulfate
- inhibition of HIV replication (HIV [1]): inhibit HIV replication
- In vitro activity (HIV [1]): HIV

Molecule: Sulfoevernan
- inhibition of HIV replication (HIV [1]): inhibit HIV replication
- In vitro activity (HIV [1]): HIV

Molecule: CCCCCCCCCCCCOS(=O)(=O)[O-].[Na+] [Sodium lauryl sulfate]
- In vitro activity (HIV [1]): HIV
- In vitro activity (HSV): HSV

Molecule: lambda-carrageenan
- inhibition of HIV replication (HIV [1]): inhibit HIV replication

Molecule: Galactan sulfate
- In vitro activity (HIV [1]): HIV
- In vitro activity (HSV-1): HSV-1

Molecule: Curdlan sulfate
- In vitro activity (CMV): CMV
- In vitro activity (HIV [1]): HIV

Molecule: Polyinosinic-polycytidylic acid
- In vitro activity (HIV [1]): HIV

Molecule: kappa-carrageenan
- inhibition of HIV replication (HIV [1]): inhibit HIV replication

Molecule: Lentinan sulfate
- inhibition of HIV replication (HIV [1]): inhibit HIV replication
- In vitro activity (HIV [1]): HIV

Molecule: 2-acetamido-2-deoxy-3-O-sulfo(14)-beta-D-glycopyranan
- In vitro activity (HIV [1]): HIV

Molecule: dextrin sulfate
- inhibition of HIV replication (HIV [1]): inhibit HIV replication

Molecule: Achranthese bidentata polysaccharide sulfate
- In vitro activity (HSV-1): HSV-1

Molecule: (14)-2-deoxy-2-sulfamido-3-O-sulfo-(14)-beta-D-glycopyranan
- In vitro activity (HIV [1]): HIV

Molecule: Prunellin
- In vitro activity (HIV [1]): HIV

Molecule: Glycyrrhizin sulfate
- In vitro activity (HIV [1]): HIV

Molecule: Fucoidin
- inhibition of HIV replication (HIV [1]): inhibit HIV replication
- In vitro activity (HIV [1]): HIV
- In vitro activity (Chlamydia): Chlamydia

Molecule: sulfated cyclodextrins
- inhibition of HIV replication (HIV [1]): inhibit HIV replication

Molecule: Calcium spirulan
- In vitro activity (CMV): CMV
- In vitro activity (HIV [1]): HIV
- In vitro activity (mumps): mumps
- In vitro activity (measles): measles
- In vitro activity (HSV-1): HSV-1

Molecule: N-carboxymethylchitosan-N,O-sulfate
- In vitro activity (HIV [1]): HIV
- In vitro activity (RLV): RLV

B1: Cyanovirin-N (from cyanobacterium): Cyanovirin-N from cyanobacterium (protein, UniProt P81180 1-101, looked up)
Cyanovirin-N: LGKFSQTCYNSAIQGSVLTSTCERTNGGYNTSSIDLNSVIENVDGSLKWQPSNFIETCRNTQLAGSSELAAECKTRAQQFVSTKINLDDHIANIDGTLKYE
- In vitro activity (HIV [1]): HIV
